In patent US9125898B2, “Acetam derivatives for pain relief” (NEUROTUNE AG, priority 2008, dated 2015):

Legend:
[1] = tested on: ddC induced mechanical allodynia in rats; experiment: ddC induced mechanical allodynia in rats, von Frey test; format: in vivo, rat; details: FIG. 4; 15 min after drug administration
Procedure: Painful peripheral NP may be induced in rats by i.v. administration of 2′,3′-dideoxycytidine (ddC) mimicking what is seen in AIDS patients undergoing antiviral therapy. The ddC test represents a useful and predictive model to study molecules with analgesic potential in human neuropathic states.
Adult male SD rats (Harlan, Italy, 150-200 g weight) were used. Animals were treated with 25 mg/kg i.v. bolus of 2′,3′-dideoxycytidine, an inhibitor of nucleoside reverse transcriptase used for AIDS therapy that in rodents induces a peripheral neuropathy resulting in allodynic responses to mechanical stimuli. Symptoms severity peaks between 5 to 10 days after administration (Joseph, E. K. et al. —Pain 107 (2004) 147-158). Ten days after administration of ddC, as an intravenous (i.v.) bolus, test substances were administered every day, once a day or b.i.d for 4 weeks. Dosing was withheld in those days in which allodynic tests were performed, and lasted for 24 h and 48 h.
NT-11624 was dissolved in distilled water and was orally by gavage administered as follows • Group 1: 100 mg/kg b.i.d. for 14 days, followed by 50 mg/kg b.i.d. for 7 days, then 50 mg/kg u.i.d. for 7 days. • Group 2: 50 mg/kg b.i.d. for 28 days.
Pregabalin (3B Pharmachem (Wuhan) International Co.) was dissolved in 1% CMC (carboxymethylcellulose) and orally administered at the dose of 15 mg/kg b.i.d. for 28 days.
Thresholds for mechanical allodynia were measured using an electronic Von Frey apparatus. […] After 4 week drug administration, additional tests were performed beyond the 60 min point, at 4, 8, 24, 48 and 56 h. Results represent the mean (±S.E.M.) of mechanical thresholds expressed in grams.
Drugs: The following substance was used: NT-11624 (batch No. 0000104580 supplied by Brane Discovery Srl, Gerenzano Italy). NT-11624 was dissolved in distilled water and given p.o. every day, except in those days in which allodynic tests were performed and lasted for 24 h, 48 h and 56 h (i.e. days 1, 3, 7, 10, 14, 21, 28).
The following groups of treatment were utilized: • NT-11624 (Group 1): rats received 100 mg/kg b.i.d. of NT-11624 for 14 days, then 50 mg/kg b.i.d. for 7 days, then 50 mg/kg u.i.d. for 7 days. • NT-11624 (Group 2): rats received 50 mg/kg b.i.d. for 28 days • Pregabalin: rats received 15 mg/kg b.i.d. for 28 days
Administration volume was 10 ml/kg body weight. Pregabalin [3B Pharmachem (Wuhan), International Co] was dissolved in CMC 1% (carboxymethylcellulose, Sigma-Aldrich, Italy), and orally given as described before. Control rats received vehicle only.
ddC intravenous injection: ddC was dissolved in saline to a concentration of 25 mg/kg (1 ml) and was administered i.v. into the rat tail vein. Control rats were treated with an equal volume of saline i.v.
The administration of ddC produces dose-dependent mechanical hypersensitivity and allodynia peaking in severity between 5-10 days after the administration. The test is usually performed at day 10.
Von Frey test: Each animal was placed in a chamber with a mesh metal floor covered by a plastic dome that enabled the animal to walk freely, but not to jump. The mechanical stimulus was then delivered in the mid-plantar skin of left hind paw using an electronic Von Frey apparatus (37400 Dynamic Plantar Aesthesiometer; Ugo Basile, Comerio, Varese, Italy). The cut-off was fixed at 50 g, while the increasing force rate (ramp duration) was settled at 20 sec. […] At day 28, additional tests were performed at 4, 8, 24, 48 and 56 h after drug administration. Results represent the mean (±S.E.M.) of mechanical thresholds expressed as grams.

[2] = tested on: chronic constriction injury induced hyperalgesia in the rat; experiment: Chronic constriction injury induced hyperalgesia in the rat (paw-pressure test); format: in vivo; details: for Paw pressure, pre-test before all treatments: baseline, drug 100 mg/kg p.o.; for Paw pressure, 5 day 30 min / Paw pressure, 10 day 30 min / Paw pressure, 14 day 30 min / Paw pressure, 14 day 4 h / Paw pressure, 14 day 8 h / Paw pressure, 15 day 24 h / Paw pressure, 18 day 3 days: 100 mg/kg p.o. once a day for 14 days
Procedure: In the repeated administration protocol, NT-13317 was orally administered at 100 mg/kg in 1% CMC once a day for 14 days starting from the day of sciatic nerve ligation.
Peripheral rat mononeuropathy (Chronic constriction injury): Neuropathy was induced according to the procedure described by Bennett and Xie (Bennett G J, Xie Y K. A peripheral mononeuropathy in rat that produces disorders of pain sensation like those seen in man. Pain 1988; 33: 87-107).
Briefly, rats were anaesthetized with chloral hydrate 400 mg/kg intraperitoneally (i.p.); under aseptic conditions, the right common sciatic nerve was exposed at the level of the middle thigh by blunt dissection. Proximal to the trifurcation, the nerve was carefully freed from the surrounding connective tissue and four chromic cat gut ligatures (4-0, Ethicon, Norderstedt, Germany) were tied loosely around it with about 1 mm spacing. After haemostasis was confirmed, the incision was closed in layers. Then animals were allowed to recover from anaesthesia and surgery and were kept one per cage with free access to water and standard laboratory chow.
Statistical analysis: All experimental results are given as the mean±S.E.M. An analysis of variance, ANOVA, followed by Fisher's protected least significant difference procedure for post hoc comparison, were used to verify significance between two means of behavioural results. Data were analyzed with the StatView software for the Macintosh (1992). P values≦0.05 were considered significant.
Data of mechanical threshold (PWT) were converted to a percentage of the maximal possible effect (% MPE), according to Veneroni, O. et al. as follows: %MPE=(left dose PWT−left pre-dose control PWT)/(left naïve PWT−left pre-dose PWT)*100
The obtained % MPE were employed for ED50 calculation (obtained by Grafit v. 5.0), defined as the dose producing 50% reversal of mechanical allodynia.

SMILES: NCC1(CC(=O)O)CCCCC1 [GABAPENTIN, Gabapentin, reference compound]
- Reversal of ddC-induced neuropathy (mechanical threshold, von Frey) [1]: not
- Paw pressure, pre-test before all treatments ([2]; CCI group): 62.9 ± 3.3 g
- Paw pressure, 5 day 30 min ([2]; CCI): 52.4 ± 4.6 g
- Paw pressure, 10 day 30 min ([2]; CCI): 52.7 ± 5.6 g
- Paw pressure, 14 day 30 min ([2]; CCI): 56.7 ± 6.2 g
- Paw pressure, 14 day 4 h ([2]; CCI): 57.1 ± 5.5 g
- Paw pressure, 14 day 8 h ([2]; CCI): 62.3 ± 6.5 g
- Paw pressure, 15 day 24 h ([2]; CCI): 59.6 ± 5.7 g
- Paw pressure, 18 day 3 days ([2]; CCI): 58.2 ± 5.5 g
- Paw pressure, pre-test before all treatments ([2]; SHAM group): 61.8 ± 2.9 g
- Paw pressure, 5 day 30 min ([2]; SHAM): 63.2 ± 4.1 g
- Paw pressure, 10 day 30 min ([2]; SHAM): 69.2 ± 5.1 g
- Paw pressure, 14 day 30 min ([2]; SHAM): 71.2 ± 6.3 g
- Paw pressure, 14 day 4 h ([2]; SHAM): 69.2 ± 5.6 g
- Paw pressure, 14 day 8 h ([2]; SHAM): 70.4 ± 5.9 g
- Paw pressure, 15 day 24 h ([2]; SHAM): 68.5 ± 5.8 g
- Paw pressure, 18 day 3 days ([2]; SHAM): 66.4 ± 4.8 g
- Effect on paw pressure test after the last administration (in words) ([2]; p.o. 100 mg/kg once a day for 14 days from the day of sciatic nerve ligation): still active after 72 hr
